Assay: Aerodynamic particle size distribution on Next Generation Impactor (NGI)
Type: physicochemical
Details: sample 14 sprayed by soft mist inhaler, NGI at 30 L/min
Procedure: Sample 14 was sprayed by a soft mist inhaler. Aerodynamic particle size distribution of droplets of sample 14 was measured on a Next Generation Impactor (NGI). Next Generation Impactor operated at a flow rate of 30 L/min was used for determination of particle size distribution. For each of the impactor experiments, the impactor collection stages were coated with a silicone oil. The particle size distribution is expressed in terms of mass median aerodynamic diameter (MMAD) and Geometric Standard Deviation (GSD).

O=C(O[C@H]1C[N+]2(CCCOc3ccccc3)CCC1CC2)C(O)(c1cccs1)c1cccs1.[Br-] [Aclidinium bromide, 3(R)-(2-hydroxy-2,2-dithien-2-ylacetoxy)-1-(3-phenoxypropyl)-1-azoniabicy-clo[2.2.2]octane bromide]
MMAD (mass median aerodynamic diameter): 4.49 μm

— patent US20200405700A1 (priority 2019, published 2020)
